Results on 24 compounds are retold here after patent US20220144838A1, “Compounds as Inhibitors of Macrophage Migration Inhibitory Factor” (NANJING IMMUNOPHAGE BIOTECH CO., LTD., priority 2019, published 2022).

Where only a bound is given, the exact number is not on record here.

For the test, the target named is T1, MIF (Homo sapiens, UniProt P14174).
T1 sequence (P14174 2-115 limits assumed): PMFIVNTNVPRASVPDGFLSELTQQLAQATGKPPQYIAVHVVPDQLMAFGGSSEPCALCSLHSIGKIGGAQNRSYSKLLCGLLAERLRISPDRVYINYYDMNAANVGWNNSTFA
Briefly: MIF tautomerase assay using pHPP as substrate. As to conditions: inhibition of the MIF enzyme in vitro; mean of multiple test results; read-out: Tautomerase Inhibition pIC50 (converted). It is filed as biochemical. The gist of the method: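 Cell-free keto-to-enol tautomerization of pHPP, enol product detected spectrophotometrically as borate complex. Final 3 nM MIF and 1.5 mM ketonic pHPP in DPBS/boric acid buffer with 0.025% BSA and 300 μM CHAPS, pH 6.0, room temperature; initial rates from absorbance slopes give mean pIC50.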
`Cc1nc(N2CCC(O)(c3cccc(O)c3)CC2)nc2c1ncn2-c1ccncc1` [Example 206, 4-(3-hydroxyphenyl)-1-(6-methyl-9-(pyridin-4-yl)-9H-purin-2-yl)piperidin-4-ol]: the IC50 was 0.1 to 0.977 µM. For `Oc1ccc(C2(O)CCN(c3nc(N4C[C@H](O)[C@@H](O)C4)c4ncn(-c5ccncc5)c4n3)CC2)cc1` [Example 207, (3S,4S)-1-(2-(4-hydroxy-4-(4-hydroxyphenyl)piperidin-1-yl)-9-(pyridin-4-yl)-9H-purin-6-yl)pyrrolidine-3,4-diol], the IC50 is 0.1 to 0.977 µM. As for `Nc1nc(N2CCC(O)(c3ccc(O)cc3)CC2)nc2c1ncn2-c1cccnc1` [Example 208, 1-(6-amino-9-(pyridin-3-yl)-9H-purin-2-yl)-4-(4-hydroxyphenyl)piperidin-4-ol], the IC50 is 0.1 to 0.977 µM. Consider `Nc1nc(N2CCC(O)(c3ccc(F)cc3)CC2)nc2c1ncn2-c1cccnc1` [Example 209, 1-(6-amino-9-(pyridin-3-yl)-9H-purin-2-yl)-4-(4-fluorophenyl)piperidin-4-ol], for which the IC50 was 1 to 9.77 µM. As to `Nc1nc(N2CCC(O)(c3ccc(F)cc3)CC2)nc2c1ncn2-c1ccncc1` [Example 210, 1-(6-amino-9-(pyridin-4-yl)-9H-purin-2-yl)-4-(4-fluorophenyl)piperidin-4-ol], the IC50 was 1 to 9.77 µM. In the case of `Oc1ccc(C2(O)CCN(c3nc(N4CCCCC4)c4ncn(-c5ccncc5)c4n3)CC2)cc1` [Example 211, 1 4-(4-hydroxyphenyl)-1-(6-(piperidin-1-yl)-9-(pyridin-4-yl)-9H-purin-2-yl)piperidin-4-ol], the IC50 was 1 to 9.77 µM. To `NC(=O)c1ccc(C2(O)CN(c3nc(N)c4ncn(-c5ccncc5)c4n3)C2)cc1` [Example 212, 4-(1-(6-amino-9-(pyridin-4-yl)-9H-purin-2-yl)-3-hydroxyazetidin-3-yl)benzamide] belongs 1 to 9.77 µM; to `Nc1nc(N2CC(O)(c3ccns3)C2)nc2c1ncn2-c1ccncc1` [Example 213, 1-(6-amino-9-(pyridin-4-yl)-9H-purin-2-yl)-3-(isothiazol-5-yl)azetidin-3-ol], more than 10 µM. To `Nc1nc(N2CC(O)(c3ccc(CO)cc3)C2)nc2c1ncn2-c1ccncc1` [Example 214, 1-(6-amino-9-(pyridin-4-yl)-9H-purin-2-yl)-3-(4-(hydroxymethyl)phenyl) azetidin-3-ol] belongs more than 10 µM. Regarding `Cc1nc(N2CCC(O)(c3ccc(O)cc3)CC2)nc2c1ncn2CC(=O)O` [Example 215, 2-(2-(4-hydroxy-4-(4-hydroxyphenyl)piperidin-1-yl)-6-methyl-9H-purin-9-yl)acetic acid], the IC50 is more than 10 µM. To `O=C(O)Cn1cnc2c(-n3ncc4ccccc43)nc(N3CC(O)(c4ccc(O)cc4)C3)nc21` [Example 216, 2-(2-(3-hydroxy-3-(4-hydroxyphenyl)azetidin-1-yl)-6-(1H-indazol-1-yl)-9H-purin-9-yl)acetic acid] belongs 0.01 to 0.0977 µM. `O=C(O)CCCCn1cnc2c(-n3ncc4ccccc43)nc(N3CCC(O)(c4ccc(O)cc4)CC3)nc21` [Example 217, 5-(2-(4-hydroxy-4-(4-hydroxyphenyl)piperidin-1-yl)-6-(1H-indazol-1-yl)-9H-purin-9-yl)pentanoic acid]: the IC50 is 0.01 to 0.0977 µM. For `Oc1ccc(C2(O)CCN(c3nc(Nc4ccncc4)c4nc[nH]c4n3)CC2)cc1` [Example 219, 4-(4-hydroxyphenyl)-1-(6-(pyridin-4-ylamino)-9H-purin-2-yl)piperidin-4-ol] the value was 0.1 to 0.977 µM; for `CN(c1ccncc1)c1nc(N2CCC(O)(c3ccc(O)cc3)CC2)nc2[nH]cnc12` [Example 220, 4-(4-hydroxyphenyl)-1-(6-(methyl(pyridin-4-yl)amino)-9H-purin-2-yl)piperidin-4-ol], more than 10 µM; for `O=C(O)Cn1cnc2c(-n3ncc4ccccc43)nc(N3CC(O)(c4ccccc4)C3)nc21` [Example 221, 2-(2-(3-hydroxy-3-phenylazetidin-1-yl)-6-(1H-indazol-1-yl)-9H-purin-9-yl)acetic acid], 0.1 to 0.977 µM. Take `C#CCn1cnc2c(-n3ncc4ccccc43)nc(N3CCC(O)(c4ccc(O)cc4)CC3)nc21` [Example 222, 1-(6-(1H-indazol-1-yl)-9-(prop-2-yn-1-yl)-9H-purin-2-yl)-4-(4-hydroxyphenyl)piperidin-4-ol]: the IC50 was 0.1 to 0.977 µM. On to `O=C(O)Cn1cnc2c(-n3ncc4ccccc43)nc(N3CCC(O)(c4ccc(F)cc4)CC3)nc21` [Example 223, 2-(2-(4-(4-fluorophenyl)-4-hydroxypiperidin-1-yl)-6-(1H-indazol-1-yl)-9H-purin-9-yl)acetic acid], for which the IC50 is 0.1 to 0.977 µM. To `OCCn1cnc2c(-n3ncc4ccccc43)nc(N3CCC(O)(c4ccc(F)cc4)CC3)nc21` [Example 224, 4-(4-fluorophenyl)-1-(9-(2-hydroxyethyl)-6-(1H-indazol-1-yl)-9H-purin-2-yl)piperidin-4-ol] belongs 1 to 9.77 µM; to `OCCn1cnc2c(-n3ncc4ccccc43)nc(N3CC(O)(c4ccccc4)C3)nc21` [Example 225, 1-(9-(2-hydroxyethyl)-6-(1H-indazol-1-yl)-9H-purin-2-yl)-3-phenylazetidin-3-ol], 1 to 9.77 µM. On to `Nc1nc(N2CCN(c3ccc(O)cc3)CC2)nc2c(-c3ccncc3)c[nH]c12` [Example 226, 4-(4-(4-amino-7-(pyridin-4-yl)-5H-pyrrolo[3,2-d]pyrimidin-2-yl)piperazin-1-yl)phenol], for which the IC50 is more than 10 µM. As to `Nc1nc(N2CCCN(c3ccccc3)CC2)nc2c1ncn2-c1ccncc1` [Example 227, 2-(4-phenyl-1,4-diazepan-1-yl)-9-(pyridin-4-yl)-9H-purin-6-amine], the IC50 is more than 10 µM. For `Oc1ccc(N2CCN(c3nc(-n4ncc5ccccc54)c4ncn(C5CCOC5)c4n3)CC2)nc1` (stereo not drawn) [Example 228, 6-(4-(6-(1H-indazol-1-yl)-9-(tetrahydrofuran-3-yl)-9H-purin-2-yl)piperazin-1-yl)pyridin-3-ol] the value was 0.1 to 0.977 µM; for `Cc1nc(N2CCN(c3ccc(O)cc3)CC2)nc2c1ncn2-c1cccnc1` [Example 229, 4-(4-(6-methyl-9-(pyridin-3-yl)-9H-purin-2-yl)piperazin-1-yl)phenol], 0.01 to 0.0977 µM. Take `Nc1nc(N2CCN(c3ccc(O)cn3)CC2)nc2c1ccn2-c1ccncc1` [Example 230, 6-(4-(4-amino-7-(pyridin-4-yl)-7H-pyrrolo[2,3-d]pyrimidin-2-yl)piperazin-1-yl)pyridin-3-ol]: the IC50 was 1 to 9.77 µM.
